Data reported in PMC10447463, “Data-mining unveils structure–property–activity correlation of viral infectivity enhancing self-assembling peptides” (Nature Communications, 2023).
Like-named read-outs stand apart in the source and are kept apart here.

Type: physicochemical
Conditions: for ThT Cat. / ThT-Fluorescence (categorical): ThT-active if fluorescence at least twice the control
Summary of the method: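 Fibrils (1 mg/mL solution) were mixed with 50 µM ThT in PBS for 15 min at RT, and fluorescence was read at λex 440/λem 488 nm against a PBS blank, as a triplicate mean ± SD. Zeta potential came from electrophoretic mobility (Smoluchowski) after 1 d aggregation at 1 mg/mL in PBS pH 7.4, diluted into 1 mM KCl.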

[1] = ThT fluorescence category, 1 if Rel. ThT >2

| Substance | Tht category (> 2 to blank = +) (Fig S10 panel D) | Tht category (> 2 to blank = +) (FigS12 panel A) | ThT Cat, (FigS12 panel B) | ThT Cat, (ThT category, 1 if Rel. ThT >2) | ThT Cat. (ThT category, 1 if Rel. ThT >2) | ThT Cat. / ThT-Fluorescence (categorical) | ThT Cat. [1] |
| --- | --- | --- | --- | --- | --- | --- | --- |
| PPFHPPPFHP | 0 (ThT-inactive (N-Fold <2)) | 0 (ThT-inactive (N-Fold <2)) | 0 (ThT-inactive (N-Fold <2)) | 0 (ThT-inactive (N-Fold <2)) | 0 (ThT-inactive (N-Fold <2)) | 0 (ThT-inactive (N-Fold <2)) |  |
| KIKQIIN | 0 (ThT-inactive (N-Fold <2)) | 0 (ThT-inactive (N-Fold <2)) | 0 (ThT-inactive (N-Fold <2)) | 0 (ThT-inactive (N-Fold <2)) |  | 0 (ThT-inactive (N-Fold <2)) | 0 (ThT-inactive (N-Fold <2)) |
| RPRGLLLGNLR | 0 (ThT-inactive (N-Fold <2)) | 0 (ThT-inactive (N-Fold <2)) | 0 (ThT-inactive (N-Fold <2)) | 0 (ThT-inactive (N-Fold <2)) | 0 (ThT-inactive (N-Fold <2)) | 0 (ThT-inactive (N-Fold <2)) |  |
| KVKGVGK | 0 (ThT-inactive (N-Fold <2)) | 0 (ThT-inactive (N-Fold <2)) | 0 (ThT-inactive (N-Fold <2)) | 0 (ThT-inactive (N-Fold <2)) | 0 (ThT-inactive (N-Fold <2)) | 0 (ThT-inactive (N-Fold <2)) |  |
| QCKIKQIINM | 1 (ThT. Cat is 1, if Rel. ThT >2) |  |  | 1 (ThT. Cat is 1, if Rel. ThT >2) | 1 (ThT. Cat is 1, if Rel. ThT >2) | 1 (ThT. Cat is 1, if Rel. ThT >2) |  |
| CKIKIQIII | 1 (ThT. Cat is 1, if Rel. ThT >2) |  |  | 1 (ThT. Cat is 1, if Rel. ThT >2) | 1 (ThT. Cat is 1, if Rel. ThT >2) | 1 (ThT. Cat is 1, if Rel. ThT >2) |  |
| NMWQKIKQII | 0 (ThT-inactive (N-Fold <2)) | 0 (ThT-inactive (N-Fold <2)) | 0 (ThT-inactive (N-Fold <2)) | 0 (ThT-inactive (N-Fold <2)) | 0 (ThT-inactive (N-Fold <2)) | 0 (ThT-inactive (N-Fold <2)) |  |
| CEFEFQF | 0 (ThT-inactive (N-Fold <2)) | 0 (ThT-inactive (N-Fold <2)) | 0 (ThT-inactive (N-Fold <2)) | 0 (ThT-inactive (N-Fold <2)) |  | 0 (ThT-inactive (N-Fold <2)) | 0 (ThT-inactive (N-Fold <2)) |
| KIKIQINMWA | 0 (ThT-inactive (N-Fold <2)) |  |  | 0 (ThT-inactive (N-Fold <2)) |  | 0 (ThT-inactive (N-Fold <2)) | 0 (ThT-inactive (N-Fold <2)) |
| KIKIKIKIYYYY | 0 (ThT-inactive (N-Fold <2)) |  |  | 0 (ThT-inactive (N-Fold <2)) |  | 0 (ThT-inactive (N-Fold <2)) | 0 (ThT-inactive (N-Fold <2)) |
| QCKFKFQF | 1 (ThT. Cat is 1, if Rel. ThT >2) |  |  | 1 (ThT. Cat is 1, if Rel. ThT >2) | 1 (ThT. Cat is 1, if Rel. ThT >2) | 1 (ThT. Cat is 1, if Rel. ThT >2) |  |
| CKFKFQFNMW | 1 (ThT. Cat is 1, if Rel. ThT >2) |  |  | 1 (ThT. Cat is 1, if Rel. ThT >2) |  | 1 (ThT. Cat is 1, if Rel. ThT >2) | 1 (ThT. Cat is 1, if Rel. ThT >2) |
| KYKGAIIGNIK | 0 (ThT-inactive (N-Fold <2)) | 0 (ThT-inactive (N-Fold <2)) | 0 (ThT-inactive (N-Fold <2)) | 0 (ThT-inactive (N-Fold <2)) | 0 (ThT-inactive (N-Fold <2)) | 0 (ThT-inactive (N-Fold <2)) |  |
| KYKYQY | 1 (ThT. Cat is 1, if Rel. ThT >2) | 1 (ThT. Cat is 1, if Rel. ThT >2) | 1 (ThT. Cat is 1, if Rel. ThT >2) | 1 (ThT. Cat is 1, if Rel. ThT >2) |  | 1 (ThT. Cat is 1, if Rel. ThT >2) | 1 (ThT. Cat is 1, if Rel. ThT >2) |
| KIRGKFEKED | 1 (ThT. Cat is 1, if Rel. ThT >2) | 1 (ThT. Cat is 1, if Rel. ThT >2) | 1 (ThT. Cat is 1, if Rel. ThT >2) | 1 (ThT. Cat is 1, if Rel. ThT >2) | 1 (ThT. Cat is 1, if Rel. ThT >2) | 1 (ThT. Cat is 1, if Rel. ThT >2) |  |
| KIKIQINMAQ | 0 (ThT-inactive (N-Fold <2)) |  |  | 0 (ThT-inactive (N-Fold <2)) |  | 0 (ThT-inactive (N-Fold <2)) | 0 (ThT-inactive (N-Fold <2)) |
